Assay results taken from patent US9668477B2, “Active compound combinations” (BAYER CROPSCIENCE AG, priority 2012, dated 2017).
Like-named read-outs stand apart in the source and are kept apart here.

What was measured:
Assay type in all cases: in vivo
[1] = system: Leptosphaeria nodorum; test: Leptosphaeria nodorum test (wheat)/preventive; details: Table C1; 160 ppm a.i.; 8 days after inoculation
Method: Solvent: 49 parts by weight of N,N-dimethylacetamide Emulsifier: 1 part by weight of alkylaryl polyglycol ether To produce a suitable preparation of active compound, 1 part by weight of active compound or active compound combination is mixed with the stated amounts of solvent and emulsifier, and the concentrate is diluted with water to the desired concentration. To test for preventive activity, young plants are sprayed with the preparation of active compound or active compound combination at the stated rate of application. After the spray coating has been dried, the plants are sprayed with a spore suspension of Leptosphaeria nodorum.

[2] = system: Alternaria solani; test: Alternaria test (tomatoes)/preventive; details: 3 days after inoculation
Method: (§1) Solvent: 24.5 parts by weight of acetone • 24.5 parts by weight of dimethylacetamide
(§2) Emulsifier: 1 part by weight of alkylaryl polyglycol ether
(§3) To produce a suitable preparation of active compound, 1 part by weight of active compound is mixed with the stated amounts of solvent and emulsifier, and the concentrate is diluted with water to the desired concentration.
To test for preventive activity, young plants are sprayed with the preparation of active compound at the stated rate of application. After the spray coating has dried on, the plants are inoculated with an aqueous spore suspension of Alternaria solani. The plants are then placed in an incubation cabinet at approximately 20° C. and a relative atmospheric humidity of 100%.
The test is evaluated 3 days after the inoculation. 0% means an efficacy which corresponds to that of the untreated control while an efficacy of 100% means that no disease is observed.

[3] = system: Sphaerotheca fuliginea; test: Sphaerotheca test (cucumbers)/preventive; details: Table G1, 7 days after inoculation
Method: Solvent: 24.5 parts by weight of acetone • 24.5 parts by weight of dimethylacetamide Emulsifier: 1 part by weight of alkylaryl polyglycol ether To produce a suitable preparation of active compound, 1 part by weight of active compound is mixed with the stated amounts of solvent and emulsifier, and the concentrate is diluted with water to the desired concentration. To test for preventive activity, young plants are sprayed with the preparation of active compound at the stated rate of application. After the spray coating has dried on, the plants are inoculated with an aqueous spore suspension of Sphaerotheca fuliginea.

[4] = system: Uromyces appendiculatus; test: Uromyces test (beans)/preventive; details: 10 days after inoculation
Method: as §1, §2, §3
To test for preventive activity, young plants are sprayed with the preparation of active compound at the stated rate of application. After the spray coating has dried on, the plants are inoculated with an aqueous spore suspension of the causal agent of bean rust (Uromyces appendiculatus) and then remain for 1 day in an incubation cabinet at approximately 20° C. and a relative atmospheric humidity of 100%.
The plants are then placed in a greenhouse at approximately 21° C. and a relative atmospheric humidity of approximately 90%.
The test is evaluated 10 days after the inoculation. 0% means an efficacy which corresponds to that of the untreated control, while an efficacy of 100% means that no disease is observed.

[5] = system: Blumeria graminis f.sp. hordei; test: Blumeria test (barley)/preventive; details: Table B1; 160 ppm a.i.; 7 days after inoculation
Method: Solvent: 49 parts by weight of N,N-dimethylacetamide Emulsifier: 1 part by weight of alkylaryl polyglycol ether To produce a suitable preparation of active compound, 1 part by weight of active compound or active compound combination is mixed with the stated amounts of solvent and emulsifier, and the concentrate is diluted with water to the desired concentration. To test for preventive activity, young plants are sprayed with the preparation of active compound or active compound combination at the stated rate of application. After the spray coating has been dried, the plants are dusted with spores of Blumeria graminis f.sp. hordei.

[6] = system: Pyrenophora teres; test: Pyrenophora teres-test (barley)/preventive; details: Table F1; 160 ppm a.i.; 8 days after inoculation
Method: (§4) Solvent: 49 parts by weight of N,N-dimethylacetamide
as §2
(§5) To produce a suitable preparation of active compound, 1 part by weight of active compound or active compound combination is mixed with the stated amounts of solvent and emulsifier, and the concentrate is diluted with water to the desired concentration.
(§6) To test for preventive activity, young plants are sprayed with the preparation of active compound or active compound combination at the stated rate of application.
After the spray coating has been dried, the plants are sprayed with a spore suspension of Pyrenophora teres. The plants remain for 48 hours in an incubation cabinet at approximately 20° C. and a relative atmospheric humidity of approximately 100%.
(§7) The plants are placed in the greenhouse at a temperature of approximately 20° C. and a relative atmospheric humidity of approximately 80%.
(§8) The test is evaluated 8 days after the inoculation. 0% means an efficacy which corresponds to that of the untreated control, while an efficacy of 100% means that no disease is observed.

[7] = system: Puccinia triticina; test: Puccinia triticina-test (wheat)/preventive; details: Table E1, 8 days after inoculation
Method: as §4, §2, §5, §6
After the spray coating has been dried, the plants are sprayed with a spore suspension of Puccinia triticina. The plants remain for 48 hours in an incubation cabinet at approximately 20° C. and a relative atmospheric humidity of approximately 100%.
as §7, §8

[8] = system: Venturia inaequalis; test: Venturia test (apples)/preventive; details: Table I1, 10 days after inoculation
Method: Solvent: 24.5 parts by weight of acetone • 24.5 parts by weight of dimethylacetamide Emulsifier: 1 part by weight of alkylaryl polyglycol ether To produce a suitable preparation of active compound, 1 part by weight of active compound is mixed with the stated amounts of solvent and emulsifier, and the concentrate is diluted with water to the desired concentration. To test for preventive activity, young plants are sprayed with the preparation of active compound at the stated rate of application.

[9] = system: Phakopsora pachyrhizi; test: Phakopsora test (soybeans)/preventive; details: Phakopsora pachyrhizi, 168 h, 7 days after inoculation, read-out: Efficacy in % found; for pest or weed control at 0.25 ppm: 0.25 ppm a.i.

CCN(C)/C=N/c1cc(C)c(Oc2ccccc2)cc1C [(Id)]
Efficacy in % found [1]: 50%
Efficacy in % found ([2]; Table A1, 0.25 ppm a.i.): 0%
Efficacy in % found ([2]; Table A1, 0.5 ppm a.i.): 24%
Efficacy in % found ([2]; Table A1, 1 ppm a.i.): 18%
Efficacy in % found ([2]; Table A2, 0.5 ppm a.i.): 0%
Efficacy in % found ([2]; Table A2, 1 ppm a.i.): 11%
Efficacy in % found ([3]; 0.25 ppm a.i.): 0%
Efficacy in % found ([3]; 0.5 ppm a.i.): 0%
Efficacy in % found ([3]; 1.25 ppm a.i.): 10%
Efficacy in % found ([4]; Table H1, 0.1 ppm a.i.): 25%
Efficacy in % found ([4]; Table H1, 0.25 ppm a.i.): 60%
Efficacy in % found ([4]; Table H2, 0.2 ppm a.i.): 0%
Efficacy in % found ([4]; Table H3, 0.125 ppm a.i.): 0%
Efficacy in % found ([4]; Table H3, 0.25 ppm a.i.): 0%
Efficacy in % found [5]: 60%
Efficacy in % found [6]: 13%
Efficacy in % found ([7]; 80 ppm a.i.): 70%
Efficacy in % found ([7]; 160 ppm a.i.): 80%
Efficacy in % found ([8]; 0.25 ppm a.i.): 0%
Efficacy in % found ([8]; 0.5 ppm a.i.): 0%
Efficacy in % found ([8]; 1 ppm a.i.): 0%
pest or weed control at 0.25 ppm ([9]; Table D1): 28%
pest or weed control at 0.5 ppm ([9]; Table D1, 0.5 ppm a.i.): 40%
pest or weed control at 1 ppm ([9]; Table D1, 1 ppm a.i.): 70%
pest or weed control at 0.25 ppm ([9]; Table D2): 45%
